Results taken from patent US20250320362A1, “Suspensions and Solutions of Dyes For Colored Coatings” (Northeastern University, priority 2022, published 2025).

Experiments:
Format in all cases: physicochemical
[1] = solubility of xanthommatin in carrier liquids (water, MES buffer); conditions: oxidized xanthommatin
[2] = xanthommatin solubility in water-based polyurethane; conditions: pigment added as suspension in water or solution in MES buffer; Rust-Oleum 6711; judged by absence of solid after centrifugation
Protocol: Evaluation of xanthommatin solubility in water-based polyurethane: Two quantities of solid xanthommatin, corresponding to either 0.2 or 1.6 mg of xanthommatin, were dissolved or dispersed in 0.3 mL of MES buffer (0.1 M, pH 5.5) or deionized water, and added to 0.27 g fractions of water-based polyurethane paint (Rust-Oleum 6711). Pigment-free samples were prepared as controls. After mixing, these samples were centrifuged (15,000 g, 5 minutes), and imaged using a camera (FIG. 1D).

[3] = pH-dependent xanthommatin solubility in water; conditions: solid pigment suspended in acidic to alkaline water (pH 2-12), agitation, then centrifugation
Protocol: Evaluation of pH-dependent xanthommatin solubility: Fractions of solid xanthommatin corresponding to 1 mg of starting material were dispersed in 1 mL of filtered water adjusted to pH 2.01, 4.00, 6.00, 7.00, 8.01, 10.01, or 12.00. Samples were mixed by pipetting, centrifuged at 15,000 g for 5 minutes, and imaged with a camera to record the mass of undissolved material (FIG. 1C, top panel). Each sample was then diluted to 1.5 mL with water adjusted to its respective pH, mixed by vortexing, sonicated for 5 minutes, centrifuged at 15,000 g for 5 minutes, and imaged again (FIG. 1C, bottom panel).

NC(CC(=O)c1cccc2oc3cc(=O)c4[nH]c(C(=O)O)cc(=O)c4c-3nc12)C(=O)O (centres unmarked) [xanthommatin, 11-(3-amino-3-carboxypropanoyl)-1,5-dioxo-4H-pyrido[3,2-a]phenoxazine-3-carboxylic acid]
solubility in MES buffer (carrier liquid) ([1]; MES buffer): fully soluble | solubility in water (carrier liquid) ([1]; water): only slightly soluble | solubility in water-based polyurethane paint base [2]: fully soluble | solubility in water, acidic conditions ([3]; acidic conditions): sparingly soluble/insoluble | solubility in water, basic conditions ([3]; basic conditions): most soluble
